Molecular target: T1, Aromatase (Homo sapiens, UniProt P11511)
T1 sequence (P11511 whole entry): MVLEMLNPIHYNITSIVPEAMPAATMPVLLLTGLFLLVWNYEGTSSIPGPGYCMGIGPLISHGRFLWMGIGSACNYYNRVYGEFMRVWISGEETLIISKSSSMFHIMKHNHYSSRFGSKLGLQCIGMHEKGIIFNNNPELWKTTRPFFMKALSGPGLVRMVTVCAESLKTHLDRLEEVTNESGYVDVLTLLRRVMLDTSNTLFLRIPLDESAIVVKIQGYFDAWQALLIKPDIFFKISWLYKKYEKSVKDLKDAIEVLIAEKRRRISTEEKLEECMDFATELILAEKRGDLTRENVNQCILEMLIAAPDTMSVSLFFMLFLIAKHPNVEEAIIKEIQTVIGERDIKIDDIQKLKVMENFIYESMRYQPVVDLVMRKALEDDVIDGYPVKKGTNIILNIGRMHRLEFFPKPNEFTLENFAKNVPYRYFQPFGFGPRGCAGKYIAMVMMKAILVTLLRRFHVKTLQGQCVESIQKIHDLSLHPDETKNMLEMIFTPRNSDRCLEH

Point of comparison: C[C@]12CCC(=O)C=C1C1C([C@@H]3[C@@H]2CC[C@]2(C)C(=O)CC[C@@H]32)C1(F)F (some centres not stated), IC50 0.889 µM. Against it:
- C[C@]12CCCCC1=CC[C@@H]1[C@@H]2CC[C@]2(C)C(=O)CC[C@@H]12 — within 1.5-fold, 0.681 µM
- C[C@]12C=CC(=O)C(Sc3ccccc3)=C1C=C[C@@H]1[C@@H]2CC[C@]2(C)C(=O)CC[C@@H]12 — 14-fold lower, 0.065 µM
- CC1(C)C[C@@]2(C)C(=C(O)C1=O)C(=O)C[C@@H]1[C@@H]2CC[C@]2(C)C(=O)CC[C@@H]12 — 2-fold lower, 0.44 µM
- C[C@]12C=CC(=O)C(Sc3ccccc3)=C1CC[C@@H]1[C@@H]2CC[C@]2(C)C(=O)CC[C@@H]12 — 1.8-fold lower, 0.5 µM
- C[C@]12CCC(=O)C(F)=C1CC[C@@H]1[C@@H]2CC[C@]2(C)C(=O)CC[C@@H]12 — 1.9-fold lower, 0.48 µM
- C[C@]12CCC(=O)C(Sc3ccccc3)=C1C=C[C@@H]1[C@@H]2CC[C@]2(C)C(=O)CC[C@@H]12 — 36-fold lower, 0.025 µM
- C[C@]12CCC(=O)C(O)=C1C=C[C@@H]1[C@@H]2CC[C@]2(C)C(=O)CC[C@@H]12 — within 1.5-fold, 1 µM
- C[C@]12CC[C@H]3[C@@H](CCC4=CC(=O)CC[C@@]43C(F)F)[C@@H]1CCC2=O — 4.5-fold higher, 4 µM
- CC1(C)C[C@@]2(C)C(=CC1=O)C(=O)C[C@@H]1[C@@H]2CC[C@]2(C)C(=O)CC[C@@H]12 — 3-fold lower, 0.3 µM
- C[C@]12CCC(=O)C(Sc3ccccc3)=C1CC[C@@H]1[C@@H]2CC[C@]2(C)C(=O)CC[C@@H]12 — 4.9-fold lower, 0.18 µM
- C[C@]12CCC(=O)C(O)=C1C(=O)C[C@@H]1[C@@H]2CC[C@]2(C)C(=O)CC[C@@H]12 — 1.9-fold lower, 0.46 µM
- CC[C@]12CCC(=O)C=C1CC[C@@H]1[C@@H]2CC[C@]2(C)C(=O)CC[C@@H]12 — 3-fold lower, 0.3 µM
- C[C@]12CCC(=O)C=C1[C@H](O)C[C@@H]1[C@@H]2CC[C@]2(C)C(=O)CC[C@@H]12 — 12-fold higher, 11 µM
- C[C@]12CCC(=O)C=C1[C@@H](O)C[C@@H]1[C@@H]2CC[C@]2(C)C(=O)CC[C@@H]12 — 17-fold higher, 15 µM
- C[C@]12CC[C@H]3[C@@H](CCC4=CC(=O)CC[C@@]43CF)[C@@H]1CCC2=O — 3.4-fold higher, 3 µM
- C[C@]12CC[C@H]3[C@@H](CCC4=CC(=O)CC[C@@]43CCCl)[C@@H]1CCC2=O — 9-fold higher, 8 µM
- C[C@]12CC[C@H]3[C@@H](C=CC45OC4C(=O)CC[C@]35C)[C@@H]1CCC2=O (some centres not stated) — 17-fold higher, 15.3 µM
- CCC1C[C@H]2[C@@H]3CC[C@H](O)[C@@]3(C)CC[C@@H]2[C@@]2(C)CCC(=O)C=C12 (some centres not stated) — 17-fold lower, 0.052 µM
- CCCCC1C[C@H]2[C@@H]3CC[C@H](O)[C@@]3(C)CC[C@@H]2[C@@]2(C)CCC(=O)C=C12 (some centres not stated) — 19-fold lower, 0.048 µM
- Cc1ccc(S(=O)(=O)N2[C@H]3[C@@H]4[C@H](CC[C@]5(C)C(=O)CC[C@@H]45)[C@@]4(C)CCC(=O)C=C4[C@H]32)cc1 (some centres not stated) — 100-fold higher, 92.9 µM
- C[C@]12CC[C@H]3[C@@H](CCC4=CC(=O)CC[C@@]43CC#N)[C@@H]1CCC2=O — 2.9-fold higher, 2.6 µM
- C[C@]12CC[C@@H]3C4CCC(=O)C(F)=C4CC[C@H]3[C@@H]1CCC2=O (some centres not stated) — 2.2-fold lower, 0.4 µM
- C[C@]12CC[C@H]3[C@@H](CCC4=C(O)C(=O)CC[C@@]43C(F)F)[C@@H]1CCC2=O — 2.8-fold higher, 2.5 µM
- C[C@]12CCC(=O)C=C1[C@H](N=[N+]=[N-])C(O)[C@@H]1[C@@H]2CC[C@]2(C)C(=O)CC[C@@H]12 (some centres not stated) — 53-fold higher, 47 µM
- C[C@]12C=C(O)C(=O)C=C1C(=O)C[C@@H]1[C@@H]2CC[C@]2(C)C(=O)CC[C@@H]12 — 6.3-fold higher, 5.6 µM
- C[C@]12CCC(=O)C=C1C(N=[N+]=[N-])=C[C@@H]1[C@@H]2CC[C@]2(C)C(=O)CC[C@@H]12 — 5.1-fold higher, 4.55 µM
- CCCCC1C[C@H]2[C@@H]3CC[C@H](O)[C@@]3(C)CC[C@@H]2[C@@]2(C)C=CC(=O)C=C12 (some centres not stated) — 14-fold lower, 0.064 µM
- C[C@]12CCC(=O)C=C1[C@H](O)C(N=[N+]=[N-])[C@@H]1[C@@H]2CC[C@]2(C)C(=O)CC[C@@H]12 (some centres not stated) — 3.4-fold higher, 3.03 µM
- COC1=C2C(=O)C[C@@H]3[C@H](CC[C@]4(C)C(=O)CC[C@@H]34)[C@@]2(C)CCC1=O — 2.2-fold higher, 2 µM
- COC1=C2C=C[C@@H]3[C@H](CC[C@]4(C)C(=O)CC[C@@H]34)[C@@]2(C)CCC1=O — 12-fold higher, 11 µM
- C[C@]12CC[C@H]3[C@@H](CCC4=CC(=O)CC[C@@]43CC(F)F)[C@@H]1CCC2=O — 4.5-fold higher, 4 µM
- CCOC1=C2C(=O)C[C@@H]3[C@H](CC[C@]4(C)C(=O)CC[C@@H]34)[C@@]2(C)CCC1=O — 5.1-fold higher, 4.5 µM
- C[C@]12C[C@@H](F)C(=O)C=C1[C@H](F)C[C@@H]1[C@@H]2CC[C@]2(C)C(=O)CC[C@@H]12 — within 1.5-fold, 1 µM
- C[C@]12CCC(=O)C=C1[C@@H]1N[C@@H]1[C@@H]1[C@@H]2CC[C@]2(C)C(=O)CC[C@@H]12 — 55-fold higher, 49.2 µM
- C[C@]12CC[C@H]3[C@@H](CCC4=CC(=O)C(O)C[C@@]43C(F)F)[C@@H]1CCC2=O (some centres not stated) — 4.3-fold higher, 3.8 µM
- C[C@]12CC[C@H]3[C@@H](CC[C@]4(F)[C@@H](O)C(=O)CC[C@]34C)[C@@H]1CCC2=O — 3.3-fold higher, 2.9 µM
- C[C@]12CCC(=O)C=C1C(=O)[C@@H](O)[C@@H]1[C@@H]2CC[C@]2(C)C(=O)CC[C@@H]12 — 12-fold higher, 11 µM
- C[C@]12CC[C@H]3[C@@H](CCC4=CC(=O)CC[C@@]43C#N)[C@@H]1CCC2=O — 28-fold higher, 25 µM
- C[C@]12CCC(=O)C=C1C1OC1[C@@H]1[C@@H]2CC[C@]2(C)C(=O)CC[C@@H]12 (some centres not stated) — 44-fold higher, 39 µM
- C[C@]12CCC(=O)C=C1[C@H](Br)C[C@@H]1[C@@H]2CC[C@]2(C)C(=O)CC[C@@H]12 — within 1.5-fold, 0.8 µM
- C[C@]12CC[C@H]3[C@@H](CCC4=CC(=O)CC[C@@]43CCF)[C@@H]1CCC2=O — within 1.5-fold, 0.7 µM
- CC(=O)O[C@@H]1C(=O)C2=CC(=O)CC[C@]2(C)[C@H]2CC[C@]3(C)C(=O)CC[C@H]3[C@H]12 — 6-fold higher, 5.3 µM
- COC1=C2C(=O)C[C@@H]3[C@H](CC[C@]4(C)C(=O)CC[C@@H]34)[C@@]2(C)CC(C)(C)C1=O — 2.1-fold higher, 1.9 µM
- CC(=O)OC1=C2CC[C@@H]3[C@H](CC[C@]4(C)C(=O)CC[C@@H]34)[C@@]2(C)CCC1=O — 1.7-fold higher, 1.5 µM
- CCC1C[C@H]2[C@@H]3CC[C@H](O)[C@@]3(C)CC[C@@H]2[C@@]2(C)C=CC(=O)C=C12 (some centres not stated) — 14-fold lower, 0.0619 µM
- CC(=O)OC1=C2C=C[C@@H]3[C@H](CC[C@]4(C)C(=O)CC[C@@H]34)[C@@]2(C)CCC1=O — 9-fold higher, 8 µM
- C[C@]12C=CC(=O)C=C1[C@H](CCCCCc1ccccc1)C[C@@H]1[C@@H]2CC[C@]2(C)C(=O)CC[C@@H]12 — 8.9-fold lower, 0.1 µM
- C=C[C@]12CCC(=O)C=C1CC[C@@H]1[C@@H]2CC[C@]2(C)C(=O)CC[C@@H]12 — 8.9-fold lower, 0.1 µM
- C[C@]12CC[C@H]3[C@@H](CCC4=CC(=O)CC[C@@]43C(F)F)[C@@H]1CC[C@@H]2O — 2.1-fold lower, 0.42 µM
- COC1=C2CC[C@@H]3[C@H](CC[C@]4(C)C(=O)CC[C@@H]34)[C@@]2(C)CCC1=O — 8.1-fold higher, 7.19 µM
- C=CC[C@]12CCC(=O)C=C1CC[C@@H]1[C@@H]2CC[C@]2(C)C(=O)CC[C@@H]12 — 2-fold higher, 1.8 µM
- CCC[C@]12CCC(=O)C=C1CC[C@@H]1[C@@H]2CC[C@]2(C)C(=O)CC[C@@H]12 — 110-fold higher, 100 µM
- C[C@]12C=CC(=O)C=C1[C@H](CCc1ccccc1)C[C@@H]1[C@@H]2CC[C@]2(C)C(=O)CC[C@@H]12 — 1.5-fold lower, 0.579 µM
- CC1C[C@H]2[C@@H]3CC[C@H](O)[C@@]3(C)CC[C@@H]2[C@@]2(C)CCC(=O)C=C12 (some centres not stated) — 49-fold lower, 0.018 µM
- C#C[C@]12CCC(=O)C=C1CC[C@@H]1[C@@H]2CC[C@]2(C)C(=O)CC[C@@H]12 — within 1.5-fold, 1 µM
- CC1C[C@H]2[C@@H]3CC[C@H](O)[C@@]3(C)CC[C@@H]2[C@@]2(C)C=CC(=O)C=C12 (some centres not stated) — 13-fold lower, 0.067 µM
- CC(=O)OC1[C@@H]2[C@H](CC[C@]3(C)C(=O)CC[C@@H]23)[C@@]2(C)CCC(=O)C=C2[C@@H]1N=[N+]=[N-] (some centres not stated) — 2.2-fold lower, 0.4 µM
- Cc1ccc(S(=O)(=O)N2[C@@H]3[C@@H]4[C@H](CC[C@]5(C)C(=O)CC[C@@H]45)[C@@]4(C)CCC(=O)C=C4[C@@H]32)cc1 (some centres not stated) — 61-fold higher, 53.8 µM
- CC(=O)N1[C@H]2[C@@H]3[C@H](CC[C@]4(C)C(=O)CC[C@@H]34)[C@@]3(C)CCC(=O)C=C3[C@H]21 — 73-fold higher, 64.6 µM
- C[C@]12CC[C@H]3[C@@H](CCC4=CC(=O)CC[C@@]43CCl)[C@@H]1CCC2=O — 1.6-fold higher, 1.4 µM
- CC(=O)OC1C[C@@]2(C)C(=CC1=O)C(=O)C[C@@H]1[C@@H]2CC[C@]2(C)C(=O)CC[C@@H]12 (some centres not stated) — 27-fold higher, 24 µM
- C[C@]12C=CC(=O)C=C1[C@H](CCCCc1ccccc1)C[C@@H]1[C@@H]2CC[C@]2(C)C(=O)CC[C@@H]12 — 1.9-fold lower, 0.47 µM
- C[C@]12C=CC(=O)C=C1[C@H](CCCc1ccccc1)C[C@@H]1[C@@H]2CC[C@]2(C)C(=O)CC[C@@H]12 — within 1.5-fold, 0.7 µM
- CC(=O)O[C@H]1C2=CC(=O)CC[C@]2(C)[C@H]2CC[C@]3(C)C(=O)CC[C@H]3[C@@H]2C1N=[N+]=[N-] (some centres not stated) — 26-fold higher, 23.1 µM
- C[C@]12C=CC(=O)C=C1[C@H](Cc1ccccc1)C[C@@H]1[C@@H]2CC[C@]2(C)C(=O)CC[C@@H]12 — 1.5-fold lower, 0.59 µM
- C[C@]12CC[C@H]3[C@@H](CC(=O)[C@]45O[C@H]4CCC[C@]35C)C1CCC2=O (some centres not stated) — 13-fold higher, 11.5 µM
